Measurements taken from patent publication US20200231638A1, “STABILIZED ANTI-MICROBIAL PEPTIDES” (priority 2015, published 2020).
Bridge positions count the residues as written; N and C are the ends. Square brackets hold non-standard residues; d marks the D form. Peptide text beside a SMILES is read from it. S5 = C=CCCC[C@](C)(N)C(=O)O; Nle = CCCC[C@H](N)C(=O)O

How the values were obtained:
E. coli = format: cell-based, Escherichia coli
How it was run: (§1)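 Broth microdilution in anion-exchange-refined Mueller-Hinton broth; serially diluted peptide mixed with bacteria at 5×10^5 CFU/ml final inoculum. Incubated 20-24 hours at 37° C. MIC taken as lowest peptide concentration with no visible growth.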

B. cereus = format: cell-based, Bacillus cereus
How it was run: as §1

S. aureus = format: cell-based, Staphylococcus aureus
How it was run: as §1

P. aeruginosa = format: cell-based, Pseudomonas aeruginosa
How it was run: as §1

human red blood cells = format: cell-based; settings: red cells of human, 1 h, 25
How it was run: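 Washed human RBCs as 1% (v/v) suspension in phosphate-buffered saline incubated 1 h at 37° C with serially diluted peptides. Hemoglobin release in supernatant measured spectrophotometrically (570 nm), % hemolysis relative to untreated and 1% Triton-X100 controls; MHC defined as concentration giving less than 1% release.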

Structure (SMILES)	MIC E. coli (E. coli) [µg/mL]	MIC B. cereus (B. cereus) [µg/mL]	MIC S. aureus (S. aureus) [µg/mL]	MIC P. aeruginosa (P. aeruginosa) [µg/mL]	% Hemolysis at 25 μg/ml (human red blood cells) [%]
CCCC[C@H](NC(=O)[C@]1(C)CCCC=CCCC[C@](C)(NC(=O)[C@H](C)NC(=O)[C@H](CCCCN)NC(=O)CNC(=O)[C@H](Cc2ccccc2)NC(=O)[C@H](CCCCN)NC(=O)[C@H](CCCCN)NC(=O)[C@H](C)NC(=O)[C@H](CO)NC(=O)[C@H](Cc2c[nH]cn2)NC(=O)[C@H](CC(C)C)NC(=O)[C@H](Cc2ccccc2)NC(=O)[C@H](CCCCN)NC(=O)CNC(=O)[C@@H](NC(=O)CN)[C@@H](C)CC)C(=O)N[C@@H](C(C)C)C(=O)NCC(=O)N[C@@H](CCC(=O)O)C(=O)N1)C(=O)N[C@@H](CCC(=O)O)C(=O)N[C@@H](CO)C(N)=O [Mag(i + 4)15(N22E), GIGKFLHSAKKFGKAXVGEXBES] (H-GIGKFLHSAKKFGKA[S5]VGE[S5][Nle]ES-NH2; staple 16-20)	3.1	12.5	25	12.5	3.4
CCCC[C@H](NC(=O)[C@]1(C)CCCC=CCCC[C@](C)(NC(=O)[C@H](C)NC(=O)[C@H](CCCCN)NC(=O)CNC(=O)[C@H](Cc2ccccc2)NC(=O)[C@H](CCCCN)NC(=O)[C@H](CCCCN)NC(=O)[C@H](C)NC(=O)[C@H](CO)NC(=O)[C@H](Cc2c[nH]cn2)NC(=O)[C@H](CC(C)C)NC(=O)[C@H](Cc2ccccc2)NC(=O)[C@H](CCCCN)NC(=O)CNC(=O)[C@@H](NC(=O)CN)[C@@H](C)CC)C(=O)N[C@@H](C(C)C)C(=O)NCC(=O)N[C@@H](CCC(=O)O)C(=O)N1)C(=O)N[C@@H](CCCCN)C(=O)N[C@@H](CO)C(N)=O [Mag(i + 4)15(N22K), GIGKFLHSAKKFGKAXVGEXBKS] (H-GIGKFLHSAKKFGKA[S5]VGE[S5][Nle]KS-NH2; staple 16-20)	1.6	3.1	12.5	3.1	12.0
CCCC[C@H](NC(=O)[C@]1(C)CCCC=CCCC[C@](C)(NC(=O)[C@H](C)NC(=O)[C@H](CCCCN)NC(=O)CNC(=O)[C@H](Cc2ccccc2)NC(=O)[C@H](CCCCN)NC(=O)[C@H](CCCCN)NC(=O)[C@H](C)NC(=O)[C@H](Cc2c[nH]cn2)NC(=O)[C@H](Cc2c[nH]cn2)NC(=O)[C@H](CC(C)C)NC(=O)[C@H](Cc2ccccc2)NC(=O)[C@H](CCCCN)NC(=O)CNC(=O)[C@@H](NC(=O)CN)[C@@H](C)CC)C(=O)N[C@@H](C(C)C)C(=O)NCC(=O)N[C@@H](CCC(=O)O)C(=O)N1)C(=O)N[C@@H](CC(N)=O)C(=O)N[C@@H](CO)C(N)=O [Mag(i + 4)15(S8H), GIGKFLHHAKKFGKAXVGEXBNS] (H-GIGKFLHHAKKFGKA[S5]VGE[S5][Nle]NS-NH2; staple 16-20)	1.6	3.1	3.1	3.1	8.7
CCCC[C@H](NC(=O)[C@]1(C)CCCC=CCCC[C@](C)(NC(=O)[C@H](C)NC(=O)[C@H](CCCCN)NC(=O)CNC(=O)[C@H](Cc2ccccc2)NC(=O)[C@H](CCCCN)NC(=O)[C@H](CCCCN)NC(=O)[C@H](C)NC(=O)[C@H](CCCCN)NC(=O)[C@H](Cc2c[nH]cn2)NC(=O)[C@H](CC(C)C)NC(=O)[C@H](Cc2ccccc2)NC(=O)[C@H](CCCCN)NC(=O)CNC(=O)[C@@H](NC(=O)CN)[C@@H](C)CC)C(=O)N[C@@H](C(C)C)C(=O)NCC(=O)N[C@@H](CCC(=O)O)C(=O)N1)C(=O)N[C@@H](CC(N)=O)C(=O)N[C@@H](CO)C(N)=O [Mag(i + 4)15(S8K), GIGKFLHKAKKFGKAXVGEXBNS] (H-GIGKFLHKAKKFGKA[S5]VGE[S5][Nle]NS-NH2; staple 16-20)	1.6	3.1	6.2	6.2	3.4
CCCC[C@H](NC(=O)[C@]1(C)CCCC=CCCC[C@](C)(NC(=O)[C@H](C)NC(=O)[C@H](CCCCN)NC(=O)CNC(=O)[C@H](Cc2ccccc2)NC(=O)[C@H](CCCCN)NC(=O)[C@H](CCCCN)NC(=O)[C@H](C)NC(=O)[C@H](CO)NC(=O)[C@H](Cc2c[nH]cn2)NC(=O)[C@H](CC(C)C)NC(=O)[C@H](Cc2ccccc2)NC(=O)[C@H](CCCCN)NC(=O)CNC(=O)[C@@H](NC(=O)CN)[C@@H](C)CC)C(=O)N[C@@H](C(C)C)C(=O)NCC(=O)N[C@@H](CCC(=O)O)C(=O)N1)C(=O)N[C@@H](CC(N)=O)C(=O)N[C@@H](CCC(=O)O)C(N)=O [Mag(i + 4)15(S23E), GIGKFLHSAKKFGKAXVGEXBNE] (H-GIGKFLHSAKKFGKA[S5]VGE[S5][Nle]NE-NH2; staple 16-20)	3.1	12.5	25	12.5	4.9
CCCC[C@H](NC(=O)[C@]1(C)CCCC=CCCC[C@](C)(NC(=O)[C@H](C)NC(=O)[C@H](CCCCN)NC(=O)CNC(=O)[C@H](Cc2ccccc2)NC(=O)[C@H](CCCCN)NC(=O)[C@H](CCCCN)NC(=O)[C@H](C)NC(=O)[C@H](CO)NC(=O)[C@H](Cc2c[nH]cn2)NC(=O)[C@H](CC(C)C)NC(=O)[C@H](Cc2ccccc2)NC(=O)[C@H](CCCCN)NC(=O)CNC(=O)[C@@H](NC(=O)CN)[C@@H](C)CC)C(=O)N[C@@H](C(C)C)C(=O)NCC(=O)N[C@@H](CCC(=O)O)C(=O)N1)C(=O)N[C@@H](CC(N)=O)C(=O)N[C@@H](CCCCN)C(N)=O [Mag(i + 4)15(S23K), GIGKFLHSAKKFGKAXVGEXBNK] (H-GIGKFLHSAKKFGKA[S5]VGE[S5][Nle]NK-NH2; staple 16-20)	1.6	6.2	50	3.1	5.0
CCCC[C@H](NC(=O)[C@]1(C)CCCC=CCCC[C@](C)(NC(=O)[C@H](C)NC(=O)[C@H](CCCCN)NC(=O)CNC(=O)[C@H](Cc2ccccc2)NC(=O)[C@H](CCCCN)NC(=O)[C@H](CCCCN)NC(=O)[C@H](C)NC(=O)[C@H](CO)NC(=O)[C@H](Cc2c[nH]cn2)NC(=O)[C@H](CC(C)C)NC(=O)[C@H](Cc2ccccc2)NC(=O)[C@H](CCCCN)NC(=O)CNC(=O)[C@@H](NC(=O)CN)[C@@H](C)CC)C(=O)N[C@@H](CCC(=O)O)C(=O)NCC(=O)N[C@@H](CCC(=O)O)C(=O)N1)C(=O)N[C@@H](CC(N)=O)C(=O)N[C@@H](CO)C(N)=O [Mag(i + 4)15(V17E), GIGKFLHSAKKFGKAXEGEXBNS] (H-GIGKFLHSAKKFGKA[S5]EGE[S5][Nle]NS-NH2; staple 16-20)	50	>50	>50	>50	0.5
